The record followed here is PubChem BioAssay (NCI).

The structures appear in SMILES notation.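 Growth conditions: 96-well plates. Treatment: test compound, 48 hours, 5 concentrations. Analysis: linear interpolation between bracketing concentrations; unreached endpoints set to highest concentration. Abbreviation: GI50, concentration required for 50% inhibition of growth. TGI marks complete inhibition of growth.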

Some test systems named below: A498 renal; A549 NSCLC; DU-145 prostate; HOP-62 NSCLC; HS 578T breast; KM12 colon; MDA-MB-435; NCI-H226 lung; NCI-H460 lung; NCI/ADR-RES ovarian; OVCAR-5 ovarian; SF-295 CNS; SF-539 CNS; SK-MEL-2 melanoma; SK-OV-3 ovarian; SNB-19 CNS; SNB-75 CNS; U251 CNS; UACC-62 melanoma; CAKI-1 renal; K-562 leukemia; M14 melanoma; MALME-3M melanoma; SK-MEL-5 melanoma.
Common to all, as to assay: NCI anticancer screen, dose series, 48 h

Consider `C#CCn1c(=O)c(I)cn(/C(=C\C(=O)OCC)C(=O)OCC)c1=O`, for which the TGI with A498 renal is 31.9 µM; in the assay on A549 NSCLC, > 100 µM; with DU-145 prostate it was 31.3 µM; in the assay with HOP-62 NSCLC it was 33.6 µM; in the assay with HS 578T breast, > 100 µM; in the assay on KM12 colon, 31.7 µM. The TGI was 30.9 µM with MDA-MB-435; 38.2 µM in the assay on NCI-H226 lung; 39.9 µM in the assay with NCI-H460 lung; 65.1 µM in the assay on NCI/ADR-RES ovarian; 40.2 µM in the assay on OVCAR-5 ovarian; 36.8 µM with SF-295 CNS. The TGI in the assay with SF-539 CNS worked out at 33.4 µM; in the assay on SK-MEL-2 melanoma, 37.2 µM; in the assay with SK-OV-3 ovarian it was 31.8 µM; in the assay with SNB-19 CNS, 64 µM; in the assay with SNB-75 CNS it was 30.9 µM; with U251 CNS, 29.1 µM. In the assay on UACC-62 melanoma, this compound yielded a TGI of 30.6 µM.

Turning to `C=C(C)[C@@H]1CC[C@]2(C)[C@H](CC=C3[C@@H]4CC(C)(C)CC[C@]4(CO)CC[C@]32C)[C@@]1(C)CCCN`, the GI50 was 1.49 µM in the assay on A498 renal; 1.73 µM with CAKI-1 renal; 2.17 µM in the assay with K-562 leukemia; 1.65 µM with M14 melanoma; 1.55 µM in the assay with MALME-3M melanoma; 1.62 µM in the assay with MDA-MB-435. Moreover, the GI50 with NCI-H226 lung was 5.31 µM; in the assay on SF-539 CNS, 1.65 µM; in the assay on SK-MEL-2 melanoma, 1.98 µM; in the assay with SK-MEL-5 melanoma it was 1.68 µM; in the assay with SK-OV-3 ovarian it was 1.88 µM; with UACC-62 melanoma it was 1.68 µM. Moreover, the TGI was 2.81 µM with A498 renal; 3.1 µM in the assay on CAKI-1 renal; 8.26 µM in the assay with K-562 leukemia; 3.1 µM with M14 melanoma; 2.96 µM with MALME-3M melanoma; 2.98 µM in the assay with MDA-MB-435. The TGI in the assay with NCI-H226 lung is 27.7 µM; with SF-539 CNS, 3.02 µM; with SK-MEL-2 melanoma, 3.58 µM; in the assay on SK-MEL-5 melanoma, 3.05 µM; in the assay on SK-OV-3 ovarian it was 3.33 µM; in the assay with UACC-62 melanoma, 3.05 µM.
